Experimental data reported in patent US20240409899A1, “PRODUCTION OF HEPATOCYTES” (Cambridge Enterprise Limited (GB/GB), priority 2021, published 2024).

Key:
[1] = test system: FoP-Heps; experiment: Fatty acid treatment, intracellular lipid accumulation (BODIPY staining) in 3D FoP-Heps; format: cell-based, human; conditions: 0.25 mM conjugated with BSA, 7 days, 3D culture from day 20; 4TF eFoP- and iFoP-Heps; BSA control
Procedure: (§1) Forward programmed cells were embedded in 3D from day 20 and cultured for 7 days in Hepatozyme complete medium supplemented with either BSA (control), or oleic acid (0.25 mM) or palmitic acid (0.25 mM) conjugated with BSA. Intracellular lipid accumulation was detected by incubating cells with 1 μl/ml Bodipy (Thermo scientific) for 30 minutes, followed by DAPI (Hoechst) diluted 1:10.000 in PBS for 30 minutes and imaged on a Zeiss LSM 700 confocal microscope.

[2] = test system: FoP-Heps; experiment: Fatty acid treatment, cell viability (Presto Blue) in 3D FoP-Heps; format: cell-based, human; conditions: 0.25 mM conjugated with BSA, 7 days, 3D culture from day 20; 4TF FoP-Heps; normalised against BSA control
Procedure: as §1
(§2) Cell viability was determined by incubating cells with 1:10 Presto Blue reagent (Invitrogen) in Hepatozyme complete medium at 37° C. for 4 hours. Fluorescence was measured using the EnVision plate reader with an excitation emission of 560 nm/590 nm.

[3] = test system: FoP-Heps; experiment: APAP toxicity, cell viability (Presto Blue) in 3D FoP-Heps; format: cell-based, human; conditions: 25 mM for 48 h (day 18 to day 20), 3D cultures; 4TF FoP-Heps; normalised against untreated
Procedure: The hepatotoxicity of acetaminophen (APAP) was tested by incubating forward programmed cells cultured in 3D from day 15 in Hepatozyme complete medium supplemented with 25 mM acetaminophen (R&D) for 48 h hours (day 18 to day 20) after which cell viability was determined.
as §2

[4] = test system: FoP-Heps; experiment: CYP3A4 activity (P450 Glo) in FoP-Heps treated with exogenous nuclear receptor ligands; conditions: for effect on CYP3A4 activity: vs untreated control, FoP-Heps with 3TFs plus the ligand's nuclear receptor (AR for testosterone, RORc for desmosterol)
Procedure: hPSCs were dissociated into single cells following incubation with StemPro Accutase (Thermo Fisher) for 5 minutes at 37° C. and seeded at a density of 40-50.000 cells/cm2 in E8 medium supplemented with 10 μM ROCK Inhibitor Y-27632 (Selleckchem). E8 medium was replenished the following day. Following 48 h, initial induction of the transgenes was achieved by incubation in E6 medium (E8 without growth factors) supplemented with […] doxycycline (dox) for 24 h. Cells were then maintained in Hepatozyme complete medium supplemented with […] dox for the remaining duration of the protocol. Medium was replenished every day for the next 4 days, and every other day here after. For specific experiments, cell lines were treated with 100 nM of desmosterol, testosterone or […] (E2) from day 2 of forward programming. All ligands were purchased from Sigma-Aldrich and reconstituted in ethanol. For 3D cultures, forward programmed cells were embedded in Matrigel Growth Factor Reduced Basement Membrane Matrix, Phenol Red-free (Corning) at day 15 or day 20 and cultured for 5 days or 10 days, respectively. Cells were dissociated with Hank's based cell dissociation buffer (Gibco) for 20 minutes at 37° C., resuspended in Matrigel and seeded in 40-50 μL domes in Hepatozyme complete medium supplemented with […] dox.
Measurement of CYP3A4 enzymatic activity was performed using the P450 Glo kit (Promega). Cells were incubate with 1:1000 luciferin-IPA in Hepatozyme complete for 1 h at 37° C. Supernatant was mixed with detection reagent in a 1:1 ratio and incubated at RT for 20 minutes in Greiner white 96 well microplates (Sigma Aldrich). Luminescence was measured in triplicate on a GloMax plate reader. Hepatozyme complete medium was used as background control. Relative light units were normalised for background, volume and average total number of cells obtained after differentiation.

[5] = 100 nM ligand from day 2, day 20 of forward programming

CCCCCCCC/C=C\CCCCCCCC(=O)O [OA, oleic acid]
accumulation of lipids (BODIPY staining) [1]: strong accumulation of lipids

CCCCCCCCCCCCCCCC(=O)O [PA, palmitic acid]
cell viability (lipotoxicity) [2]: reduction in cell viability

CC(=O)Nc1ccc(O)cc1 [acetaminophen]
reduction in cell viability [3]: 50%

CC(C)=CCC[C@@H](C)[C@H]1CC[C@H]2[C@@H]3CC=C4C[C@@H](O)CC[C@]4(C)[C@H]3CC[C@]12C [desmosterol]
effect on CYP3A4 activity [4, 5]: no effect

C[C@]12CC[C@H]3[C@@H](CCC4=CC(=O)CC[C@@]43C)[C@@H]1CC[C@@H]2O [testosterone]
effect on CYP3A4 activity [4, 5]: significantly decreased

β-estradiol [p3-estradiol]
increase in CYP3A4 activity ([4]; 100 nM ligand from day 2, day 20 of forward programming, normalised to untreated control, FoP-Heps with 3TFs plus the ligand's nuclear receptor (ERα)): 3 fold
increase in CYP3A4 activity in 3TFs FoP-Heps ([4]; 3TFs FoP-Heps without overexpressed nuclear receptor, 100 nM ligand): not observed
